Laboratory results reported in US9302999B2, “Substituted triazoles as herbicides” (E. I. DU PONT DE NEMOURS AND COMPANY, priority 2012, dated 2016).

Assays:
Type in all cases: in vivo
[1] = tested on: soybean (Glycine max); test: Test F pre-/postemergence: soybean
Summary of the method: (§1)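 Preemergence treatment of seeds sown in silt loam soil, and postemergence treatment of plants 2–18 cm tall (1- to 4-leaf stage), with compounds in non-phytotoxic solvent plus surfactant. Greenhouse 14–21 days, then visual rating versus controls on 0–100 scale (100 = complete control).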

[2] = tested on: crabgrass, Brazil (Brazilian crabgrass, Digitaria horizontalis); test: Test F pre-/postemergence: crabgrass, Brazil
Source text: Seeds of plant species selected from corn (Zea mays), soybean (Glycine max), velvetleaf (Abutilon theophrasti), lambsquarters (Chenopodium album), poinsettia, wild (wild poinsettia, Euphorbia heterophylla), pigweed, palmer (palmer pigweed, Amaranthus palmeri), waterhemp (common waterhemp, Amaranthus rudis), surinam grass (Brachiaria decumbens), crabgrass, Brazil (Brazilian crabgrass, Digitaria horizontalis), panicum, fall (fall panicum Panicum dichotomiflorum), crabgrass, large (large crabgrass, Digitaria sanguinalis), foxtail, giant (giant foxtail, Setaria faberii), foxtail, green (green foxtail Setaria viridis), goosegrass (Eleusine indica), ragweed (common ragweed, Ambrosia elatior), barnyardgrass (Echinochloa crus-galli), sandbur (southern sandbur, Cenchrus echinatus), arrowleaf sida (Sida rhombifolia), ryegrass, Italian (Italian ryegrass, Lolium multiflorum), dayflower, VA (Virginia (VA) dayflower, Commelina virginica), field bindweed (Convolvulus arvensis), cocklebur (common cocklebur, Xanthium strumarium), morningglory (Ipomoea coccinea), nightshade (eastern black nightshade, Solanum ptycanthum), kochia (Kochia scoparia), nutsedge, yellow (yellow nutsedge, Cyperus esculentus), johnsongrass (Sorghum halepense), smartweed (ladysthumb smartweed, Polygonum persicaria), and beggarticks (hairy beggarticks, Bidens pilosa), were planted into a silt loam soil and treated preemergence with test chemicals formulated in a non-phytotoxic solvent mixture which included a surfactant. At the same time, plants selected from these crop and weed species and also pigweed (Amaranthus retroflexus), waterhemp_RES1 (ALS/Triazine resistant common waterhemp, Amaranthus rudis) and waterhemp_RES2 (ALS/HPPD resistant common waterhemp, Amaranthus rudis) were planted in pots containing a planting medium comprising spaghnum peat moss, vermiculite, wetting agent and starter nutrients treated with postemergence applications of some of the test chemicals formulated in the same manner. Plants ranged in height from 2 to 18 cm for postemergence treatments (1- to 4-leaf stage).
Treated plants and controls were maintained in a greenhouse for 14 to 21 days, after which time all species were compared to controls and visually evaluated. Plant response ratings, summarized in Table E, are based on a scale of 0 to 100 where 0 is no effect and 100 is complete control. A dash (-) response means no test result.

[3] = tested on: nightshade (eastern black nightshade, Solanum ptycanthum); test: Test F pre-/postemergence: nightshade; details: Preemergence
Summary of the method: as §1

[4] = tested on: chickweed (common chickweed, Stellaria media); test: Test D pre-/postemergence: chickweed
Summary of the method: (§2)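 Pre- and postemergence herbicide screen. Soil for pre: silt loam; post medium: peat moss, vermiculite, wetting agent, starter nutrients. Plant stage at post: 1- to 4-leaf. Readout: visual % control, 14–21 days.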

[5] = tested on: field poppy (Papaver rhoeas); test: Test D pre-/postemergence: field poppy
Summary of the method: as §2

[6] = tested on: field violet (Viola arvensis); test: Test D pre-/postemergence: field violet
Summary of the method: as §2

[7] = tested on: buckwheat, wild (wild buckwheat, Polygonum convolvulus); test: Test D pre-/postemergence: buckwheat, wild
Summary of the method: as §2

[8] = tested on: oat, wild (wild oat, Avena fatua); test: Test D pre-/postemergence: oat, wild
Summary of the method: as §2

[9] = Postemergence, 250 g ai/ha, scale 0 to 100
[10] = Postemergence, 31 g ai/ha, scale 0 to 100
[11] = Postemergence, 125 g ai/ha, scale 0 to 100
[12] = Preemergence, 31 g ai/ha, scale 0 to 100, 0 no effect, 100 complete control
[13] = Preemergence, 125 g ai/ha, scale 0 to 100
[14] = Preemergence, 250 g ai/ha, scale 0 to 100
[15] = 31 g ai/ha, scale 0 to 100, 0 no effect, 100 complete control
[16] = Postemergence, 31 g ai/ha, scale 0 to 100 (0 no effect, 100 complete control)
[17] = Postemergence, 62 g ai/ha, scale 0 to 100 (0 no effect, 100 complete control)
[18] = Postemergence, 125 g ai/ha, scale 0 to 100, 0 no effect, 100 complete control
[19] = Postemergence, 16 g ai/ha, scale 0 to 100
[20] = Preemergence, 16 g ai/ha, scale 0 to 100, 0 no effect, 100 complete control
[21] = Preemergence, 62 g ai/ha, scale 0 to 100
[22] = Postemergence, 8 g ai/ha, scale 0 to 100
[23] = Postemergence, 62 g ai/ha, scale 0 to 100

CCCc1nn(-c2ccc(F)c(F)c2)nc1Oc1ccnc(C(F)(F)F)c1 [Compound 172]
Plant response rating, Soybean [1, 9]: 90 | Plant response rating, Soybean [1, 10]: 50 | Plant response rating, Soybean [1, 11]: 75 | Plant response rating, Soybean [1, 12]: 0 | Plant response rating, Soybean [1, 13]: 20 | Plant response rating, Soybean [1, 14]: 20 | Plant response rating, Crabgrass, Brazil [2, 9]: 90 | Plant response rating, Crabgrass, Brazil [2, 10]: 50 | Plant response rating, Crabgrass, Brazil [2, 11]: 70 | Plant response rating, Crabgrass, Brazil [2, 12]: 100 | Plant response rating, Crabgrass, Brazil [2, 13]: 100 | Plant response rating, Crabgrass, Brazil [2, 14]: 100 | Plant response rating, Nightshade [3, 15]: 5 | Plant response rating, Nightshade ([3]; 125 g ai/ha, scale 0 to 100): 100 | Plant response rating, Nightshade ([3]; 250 g ai/ha, scale 0 to 100): 100

CCOc1nn(-c2ccc(F)cc2)nc1Cc1ccnc(C(F)(F)F)c1 [Compound 196, 4-[[5-ethoxy-2-(4-fluorophenyl)-2H-1,2,3-triazol-4-yl]methyl]-2-(trifluoromethyl)pyridine]
Plant response rating: Chickweed [4, 16]: 85 | Plant response rating: Chickweed [4, 17]: 95 | Plant response rating: Chickweed [4, 18]: 100 | Plant response rating, Chickweed [4, 19]: 70 | Plant response rating, Chickweed [4, 20]: 50 | Plant response rating, Chickweed [4, 12]: 65 | Plant response rating, Chickweed [4, 21]: 100 | Plant response rating, Chickweed [4, 13]: 100 | Plant response rating: Field Poppy [5, 16]: 100 | Plant response rating: Field Poppy [5, 17]: 100 | Plant response rating: Field Poppy [5, 18]: 100 | Plant response rating, Field Poppy [5, 19]: 100 | Plant response rating, Field Poppy [5, 20]: 95 | Plant response rating, Field Poppy [5, 12]: 90 | Plant response rating, Field Poppy [5, 21]: 100 | Plant response rating, Field Poppy [5, 13]: 100 | Plant response rating: Field Violet [6, 16]: 85 | Plant response rating: Field Violet [6, 17]: 95 | Plant response rating: Field Violet [6, 18]: 100 | Plant response rating, Field Violet [6, 19]: 80 | Plant response rating, Field Violet [6, 20]: 80 | Plant response rating, Field Violet [6, 12]: 95 | Plant response rating, Field Violet [6, 21]: 100 | Plant response rating, Field Violet [6, 13]: 100 | Plant response rating: Buckwheat, Wild [7, 16]: 70 | Plant response rating: Buckwheat, Wild [7, 17]: 90 | Plant response rating: Buckwheat, Wild [7, 18]: 95 | Plant response rating, Buckwheat, Wild [7, 19]: 50 | Plant response rating, Buckwheat, Wild [7, 20]: 60 | Plant response rating, Buckwheat, Wild [7, 12]: 45 | Plant response rating, Buckwheat, Wild [7, 21]: 70 | Plant response rating, Buckwheat, Wild [7, 13]: 95 | Plant response rating: Oat, Wild [8, 16]: 50 | Plant response rating: Oat, Wild [8, 17]: 45 | Plant response rating: Oat, Wild [8, 18]: 70 | Plant response rating, Oat, Wild [8, 19]: 15 | Plant response rating, Oat, Wild [8, 20]: 25 | Plant response rating, Oat, Wild [8, 12]: 30 | Plant response rating, Oat, Wild [8, 21]: 75 | Plant response rating, Oat, Wild [8, 13]: 100 | Plant response rating, Soybean [1, 22]: 50 | Plant response rating, Soybean [1, 19]: 60 | Plant response rating, Soybean [1, 10]: 65 | Plant response rating, Soybean [1, 23]: 70 | Plant response rating, Soybean [1, 11]: 80 | Plant response rating, Soybean ([1]; Preemergence, 8 g ai/ha, scale 0 to 100, 0 no effect, 100 complete control): 0 | Plant response rating, Soybean [1, 20]: 0 | Plant response rating, Soybean [1, 12]: 20 | Plant response rating, Soybean [1, 13]: 35 | Plant response rating, Crabgrass, Brazil [2, 22]: 60 | Plant response rating, Crabgrass, Brazil [2, 19]: 75 | Plant response rating, Crabgrass, Brazil [2, 10]: 85 | Plant response rating, Crabgrass, Brazil [2, 23]: 95 | Plant response rating, Crabgrass, Brazil [2, 11]: 95 | Plant response rating, Nightshade ([3]; 8 g ai/ha, scale 0 to 100, 0 no effect, 100 complete control): 95 | Plant response rating, Nightshade ([3]; 16 g ai/ha, scale 0 to 100, 0 no effect, 100 complete control): 95 | Plant response rating, Nightshade [3, 15]: 95 | Plant response rating, Nightshade ([3]; 125 g ai/ha, scale 0 to 100): 100
